The values that follow come from US6881824B1, “Peptides suitable for use in antigen specific immunosuppressive therapy” (Akzo Nobel N.V., priority 1996, dated 2005).

In general, IC50 refers to the concentration at which inhibition is half-maximal.

Test [1] addresses T1, DR4 (DRB1*0401) molecules (Homo sapiens, UniProt P01903+P01911, A100K/A169T/F76Y/I96L/K127E/L162R/M171V/N62H/P40V/Q125Y/R42H/S133A/S149N/S66Y/V115G/V209L/W38E).
T1 construct: molecules were purified from the homozygous EBV-transformed human B lymphoblastoid cell lines Huly138IC2 and BM92 using the mAb; endogenous in cells
The experiment in a line: Peptide HLA-DR binding assay (semi-quantitative competition binding). The conditions noted are these: for IC50: Table IIIA, competition with biotinylated marker peptide HA 309 Y→F, pH5.0, 44 hr RT. The method, then:
DR4 (DRB1*0401) and DR4 (DRB1*0404) molecules were purified from the homozygous EBV-transformed human B lymphoblastoid cell lines Huly138IC2 and BM92 using the mAb t243, directed against a monomorphic determinant on the DR-complex (Lampson, L. A and R. Levy (1980), J. Immunol. 125:293 299).
The peptide binding studies were performed using a semi-quantitative competition binding assay (Joosten et al 1994, Int. Immunol. 6, 751). Briefly, purified HLA-DR molecules (30 nM DR4(DRB1*0401) or 15 nM DR4 (DRB1*0404) were incubated at pH5.0 with 50 nM biotinylated marker peptide (HA 309y→F) and a concentration range of competitor peptide in a final volume of 25 μl binding buffer (PBS containing 0.01% […], 0.05% NP-40, 5% DMSO, 1 mM AEBSF, 1 mM N-ethyl maleimide, 8 mM EDTA and 10 μm pepstatin A). After 44 hr of incubation at RT, HLA DR bound marker peptide was separated from free marker peptide using a 96 well vacuum dotblot apparatus (Hybri. dot, BRL) and a nitrocellulose membrane (Hybond ECL, Amersham, UK). The nitrocellulose filters were blocked with 0.5% DNA blocking reagent (Boehringer) in 0.1 M maleic acid, 150 mM NaCl, pH7.5.
After 0.5-1 hr, the filters were washed in PBS, 0.05% Tween 20 (Sigma) and incubated with Strepcavidin-HRPO (Southern Biotechnology) in a 1:10.000 dilution. Biotinylated peptides were detected by enhanced chemiluminescence using a Western Blot ECL kit (Amersham). Exposure of the preflashed films (Hyperfilm-ECL, Amersham) was for 10 min. The spots were analysed by scanning the films and using Image Quant/Excel software for analysis.
The affinity of a given peptide for binding DRB1*0401-encoded molecules was related to competition with the marker peptide. This relative binding affinity was defined as the peptide concentration at which the signal was reduced to 50% (IC50).

Test [2] deals with PBMC from RA patients and healthy controls carrying the DR4 (DRB1*0401) specificity. The experiment in a line: Proliferative responses of blood mononuclear cells, RA patients and healthy donors taken together. To be noted: individual peptides; any donor. The test is classed as cell-based, human. The method, then:
(§1) In order to identify T-cell epitopes within HC gp-39, 59 peptides of 16 AA in length, overlapping by 10 AA were tested for their capacity to induce a proliferative response in PBMC from RA patients and healthy controls carrying the DR4 (DRB1*0401) specificity (Table 1).
(§2) PBMC obtained from heparinized venous peripheral blood were isolated by standard centrifugation on a Ficoll-Paque gradient. Cells were cultured in four-fold at a concentration of 1,5×10^5 cells/well in medium supplemented with 10% heat-inactivated, autologous plasma, L-glutamine, 2-ME and antibiotics in flatbottomed microtiter plates. Cells were incubated in medium alone or in the presence of phytohaemagglutinin (PHA) (2:5 μg/ml) to assert cell viability, or in the presence of 10 or 100 μg/ml of the HC gp-39-derived peptides. In several cases, sets of 2 or 3 sequential peptides were tested due to limited PBMC numbers of individual donors. Cultures were incubated in a total volume of 210 μl for 7 days at […] in a humidified atmosphere of 5% CO2. Cultures were pulsed during the last 18 hours with 0.25 μCi ^3H-thymidine ([^3H]TdR). Cells were harvested on glassfiber filters and [^3H] TdR incorporation was measured by gas scintillation (Packard Matrix 96 βcounter). Only peptides inducing a proliferative response at both 10 and 100 μg/ml were considered to contain a T-cell epitope. Responses were defined positive if stimulation index values (SI, antigen-specific counts per 5 min (cp5 m)/background cp5 m) exceeded or equaled 2.
(§3) T-cell reactivity to HC gp-39-derived peptide as analyzed by measuring the PBMC proliferative response in DR4 (DRB1*0401)-positive RA patients and healthy donors. Proliferative responses were tested in autologous plasma. In Table IIIA and IIIB the results of 7 experiments are presented showing the responses of RA patients (Table IIIA) and the responses of healthy donors (Table IIIB) to 59 overlapping sequences derived from HC gp-39.

Test [3] relates to PBMC from RA patients carrying the DR4 (DRB1*0401) specificity. The experiment in a line: Peptide-induced proliferative responses of PBMC from RA patients. The test is classed as cell-based, human. The conditions noted are these: for Peptide-induced proliferative response of PBMC, RA 272: RA patient 272, 0401, R; for Responses to peptides observed in RA patients only: compared with healthy donors; for Peptide-induced proliferative response of PBMC, RA 286: RA patient 286, 0401, R; for Peptide-induced proliferative response of PBMC, RA 259: RA patient 259, 0401, R; for Peptide-induced proliferative response of PBMC, RA 276: RA patient 276, 0401, R. The method, then:
This study included 7 DR4(DRB1*0401)-positive patients diagnosed as suffering from RA according to the ARA criteria (Arnett et al., (1988), Arthritis Rheum. 31, 315). Peripheral blood samples were obtained with informed consent. There were five women and two men aged 46-79 years. Their duration of disease ranged from over 10 to over 30 years. Three out of 7 patients had at least 3 swollen joints. […] All patients were on medication: Four patients were treated with prednisone, three patients received anti-rheumatic agents and 4 patients were treated with NSAID's as well.
as §1, §2, §3

For test [4], the target named is T2, DR4 (DRB1*0401) molecules purified from the homozygous EBV-transformed human B lymphoblastoid cell line … (human, UniProt P01903 26-254).
T2 construct: mature; That form is inferred from purification of the native complex
The test can be described thus: competition binding assay on purified DR4(DRB1*0401).

[5] abbreviates: 100 and 10 microgram/ml, 7 days, 3H-thymidine incorporation.

Ends that are not written are not given here.

For the molecule “LAGAMVWALDLDDFQG [compound 55, LAGAMVWALDLDDFQG]”, in test [1], the “Relative affinity of binding to DR4 (DRB1*0401), in words” value (“Relative affinity of binding to DR4” for short) was “relatively high affinity” and the IC50 is below 1 µM. Also, the “Responses to the individual peptides (PBMC proliferation), identifying T-cell epitopes” value (from here on “Responses to the individual peptides”) in test [2] is “observed in one or more donors”. The “Peptide-induced proliferative response of PBMC, RA 272” value in test [3] (setting [5]) is “pos (positive responses to both 100 and 10 microgram/ml of peptide or sets of peptides (SI≧2 were regarded positive))”. In addition, in test [3], the “Response of PBMC from RA patient 272 to individual peptides, in words” value (shortened to “Response of PBMC … in words”) was “appeared to respond” and the “Responses to peptides observed in RA patients only” value (shortened to “Responses to peptides observed”) was “observed in RA patients only”.

Turning to “MGIPTFGRSFTLASSE [compound 40, MGIPTFGRSFTLASSE]”, in test [1], the “Relative affinity of binding to DR4” value is “relatively high affinity” and the concentration for half-maximal inhibition (IC50) was below 1 µM. Moreover, the “Responses to the individual peptides” value in test [2] is reported as “observed in one or more donors”. Further, in test [3] (setting [5]), the “Peptide-induced proliferative response of PBMC, RA 272” value is “pos (positive responses to both 100 and 10 microgram/ml of peptide or sets of peptides (SI≧2 were regarded positive))”; the “Peptide-induced proliferative response of PBMC, RA 286” value is “pos (positive responses to both 100 and 10 microgram/ml of peptide or sets of peptides (SI≧2 were regarded positive))”. In addition, in test [3], the “Response of PBMC … in words” value was “appeared to respond” and the “Responses to peptides observed” value is “observed in RA patients only”.

“MLRLGAPASKLVMGIP [compound 38, MLRLGAPASKLVMGIP]”: in test [1], the “Relative affinity of binding to DR4” value is given as “intermediate relative affinity” and the IC50 was 10 to 100 µM. Besides, the “Responses to the individual peptides” value in test [2] was “observed in one or more donors”. Besides, in test [3] (setting [5]), the “Peptide-induced proliferative response of PBMC, RA 259” value was “pos (positive responses to both 100 and 10 microgram/ml of peptide or sets of peptides (SI≧2 were regarded positive))”; the “Peptide-induced proliferative response of PBMC, RA 272” value is “pos (positive responses to both 100 and 10 microgram/ml of peptide or sets of peptides (SI≧2 were regarded positive))”; the “Peptide-induced proliferative response of PBMC, RA 276” value was “pos (positive responses to both 100 and 10 microgram/ml of peptide or sets of peptides (SI≧2 were regarded positive))”; the “Peptide-induced proliferative response of PBMC, RA 286” value is “pos (positive responses to both 100 and 10 microgram/ml of peptide or sets of peptides (SI≧2 were regarded positive))”. Besides, the “Peptide-induced proliferative response of PBMC, RA 262” value in test [3] (RA patient 262, 0401, R, 100 and 10 microgram/ml, 7 days, 3H-thymidine incorporation) was “pos (positive responses to both 100 and 10 microgram/ml of peptide or sets of peptides (SI≧2 were regarded positive))”. Besides, in test [3], the “Response of PBMC … in words” value was “appeared to respond” and the “Responses to peptides observed” value is given as “observed in RA patients only”.

Turning to “SPLFRGQEDASPDRFS [compound 34, SPLFRGQEDASPDRFS]”, in test [1], the “Relative affinity of binding to DR4” value is on record as “relatively high affinity” and the half-maximal inhibitory concentration (IC50) was below 1 µM. Further, the “Responses to the individual peptides” value in test [2] is reported as “observed in one or more donors”. Besides, the “Peptide-induced proliferative response of PBMC, RA 272” value in test [3] (setting [5]) was “pos (positive responses to both 100 and 10 microgram/ml of peptide or sets of peptides (SI≧2 were regarded positive))”. Further, in test [3], the “Response of PBMC … in words” value is listed as “appeared to respond” and the “Responses to peptides observed” value was “observed in RA patients only”.

Turning to “YTSWSQYREGDGSCFP [peptide 2, YTSWSQYREGDGSCFP]”, in test [1], the “Relative affinity of binding to DR4” value is on record as “intermediate relative affinity” and the IC50 lay in the range of 10 to 100 µM. The “Responses to the individual peptides” value in test [2] is reported as “observed in one or more donors”. Besides, the “Peptide-induced proliferative response of PBMC, RA 191” value in test [3] (RA patient 191, 0401, R, 100 and 10 microgram/ml, 7 days, 3H-thymidine incorporation) is “pos (positive responses to both 100 and 10 microgram/ml of peptide or sets of peptides (SI≧2 were regarded positive))”. Moreover, in test [3] (setting [5]), the “Peptide-induced proliferative response of PBMC, RA 259” value is “pos (positive responses to both 100 and 10 microgram/ml of peptide or sets of peptides (SI≧2 were regarded positive))”; the “Peptide-induced proliferative response of PBMC, RA 272” value was “pos (positive responses to both 100 and 10 microgram/ml of peptide or sets of peptides (SI≧2 were regarded positive))”; the “Peptide-induced proliferative response of PBMC, RA 276” value was “pos (positive responses to both 100 and 10 microgram/ml of peptide or sets of peptides (SI≧2 were regarded positive))”; the “Peptide-induced proliferative response of PBMC, RA 286” value was “pos (positive responses to both 100 and 10 microgram/ml of peptide or sets of peptides (SI≧2 were regarded positive))”. Also, in test [3], the “Response of PBMC … in words” value is “appeared to respond” and the “Responses to peptides observed” value is recorded as “observed in RA patients only”.

Turning to PASKLVMGIPTFGRSF [HC gp-39 peptide 39 (residues 250-265)], in test [4], the binding result is “binds”.

In the case of GTLAYYEICDFLRGAT [HC gp-39 peptide 46 (residues 292-307)], the binding result in test [4] is “binds”.

EICDFLRGATVHRTLG [HC gp-39 peptide 47 (residues 298-313)]: in test [4], the binding result is on record as “binds”.

Regarding VKSKVQYLKDRQLAGA [HC gp-39 peptide 53 (residues 334-349)], in test [4], the binding result was “binds”.

In the case of RGATVHRTLGQQVPYA [HC gp-39 peptide 48 (residues 304-319)], in test [4], the binding result is “binds”.

B1: HC gp-39 peptide 56 (residues printed as 352-377) (peptide)
peptide: WALDLDDFQGSFCGQD
notes: A 16-mer starting at 352 would end at 367, so this is probably a misprint
In the case of B1, in test [4], the binding result is reported as “binds”.
